Experimental data reported in ChEMBL document CHEMBL2062501 (ACS Med Chem Lett, 2012).

Key:
[1] = target: T1, Calcitonin gene-related peptide type 1 receptor (Homo sapiens, UniProt O60894+Q16602); test: Displacement of [125I]-CGRP from CGRP receptor in human SK-N-MC cells; type: cell-based
[2] = system: marmosets; test: Antimigraine activity in marmosets assessed as inhibition of alphaCGRP-induced increase in facial blood flow at 10 mg/kg, po by laser Doppler flowmetry; type: functional; settings: Callitrichinae sp., in Callithrix jacchus
[3] = Oral bioavailability in dog at 10 mg/kg; type: ADME, organism-based, Canis lupus familiaris; settings: in vivo
[4] = Metabolic stability of the compound in human liver microsomes assessed as compound remaining at 0.5 uM after 10 mins; type: ADME, Microsome; settings: read-out: Stability
[5] = target: T1, Calcitonin gene-related peptide type 1 receptor; test: Antagonist activity at CGRP receptor in human SK-N-MC cells assessed as inhibition of CGRP-stimulated cAMP production; type: functional, cell-based
[6] = system: marmosets; test: Antimigraine activity in marmosets assessed as inhibition of human alphaCGRP-induced increase in facial blood flow at 7 mg/kg, sc measured after 60 mins by laser Doppler flowmetry; type: functional; settings: Callitrichinae sp., 1 h, route subcutaneous
[7] = Oral bioavailability in rat at 10 mg/kg; type: ADME, organism-based; settings: in vivo
[8] = system: marmosets; test: Antimigraine activity in marmosets assessed as inhibition of human alphaCGRP-induced increase in facial blood flow at 7 mg/kg, sc measured after 105 mins by laser Doppler flowmetry; type: functional; settings: Callitrichinae sp., 1.75 h, route subcutaneous
[9] = Permeability of the compound at pH 7.4 by PAMPA; type: ADME; settings: read-out: permeability
[10] = Plasma concentration on marmosets at 7 mg/kg, sc measured after 105 mins; type: ADME, organism-based; parameters: dose 7 mg/kg, route subcutaneous; settings: callitrichinae sp.
[11] = Plasma concentration on marmosets at 7 mg/kg, sc measured after 60 mins; type: ADME, organism-based; parameters: dose 7 mg/kg, route subcutaneous; settings: callitrichinae sp.
[12] = Oral bioavailability in cynomolgus monkey at 10 mg/kg; type: ADME, organism-based, Macaca fascicularis; settings: in vivo
[13] = Permeability of the compound at pH 5.5 by PAMPA; type: ADME; settings: read-out: permeability
[14] = Half life in human liver microsomes at 0.5 uM; type: ADME, Microsome

T1 sequence (Q16602 whole entry, one chain of several): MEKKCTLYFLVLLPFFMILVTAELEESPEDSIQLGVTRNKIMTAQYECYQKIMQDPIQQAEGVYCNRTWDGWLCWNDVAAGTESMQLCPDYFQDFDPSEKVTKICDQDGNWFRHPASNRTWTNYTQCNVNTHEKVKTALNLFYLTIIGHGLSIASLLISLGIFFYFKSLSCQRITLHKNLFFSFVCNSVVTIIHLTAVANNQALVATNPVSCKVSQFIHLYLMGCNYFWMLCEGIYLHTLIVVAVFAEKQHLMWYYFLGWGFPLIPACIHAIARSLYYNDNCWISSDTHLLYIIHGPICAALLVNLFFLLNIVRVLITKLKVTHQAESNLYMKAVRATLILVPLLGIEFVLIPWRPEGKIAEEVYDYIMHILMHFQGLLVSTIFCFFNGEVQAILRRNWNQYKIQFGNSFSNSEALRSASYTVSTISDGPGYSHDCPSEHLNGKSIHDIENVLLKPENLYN

| Ki [1] [pM] | bioavailability [3] [%] | remaining at 10 min, 0.5 µM [4] [%] | IC50 [5] [pM] | bioavailability [7] [%] | Papp [9] [×10⁻⁶ cm/s] | concentration at 1.75 h [10] [nM] | concentration at 1 h [11] [nM] | bioavailability [12] [%] | Papp [13] [×10⁻⁶ cm/s] | half-life at 0.5 µM [14] [min] | Compound | inhibition in vivo at 10 mg/kg [2] [%] | inhibition in vivo at 7 mg/kg [6] [%] | inhibition in vivo at 7 mg/kg [8] [%] |
| --- | --- | --- | --- | --- | --- | --- | --- | --- | --- | --- | --- | --- | --- | --- |
| 71 | – | – | – | – | – | – | – | – | – | – | Cc1cc(CC(OC(=O)N2CCC(n3c(=O)[nH]c4ncccc43)CC2)c2cc(C(=O)N(C)C)cc(Cl)n2)cc2cn[nH]c12 (racemic) | 31 | – | – |
| 940000 | – | – | – | – | – | – | – | – | – | – | O=C(O[C@H]1CC[C@H](c2cccc(F)c2F)Cc2cccnc21)N1CCC(n2c(=O)[nH]c3ncccc32)CC1 | – | – | – |
| 70 | 34 | 74 | 220 | 29 | 88 | > 1500 | > 1000 | 38 | 150 | 24 | O=C(O[C@@H]1CC[C@@H](c2cccc(F)c2F)Cc2cccnc21)N1CCC(n2c(=O)[nH]c3ncccc32)CC1 | – | 52 | 52 |
